Biological target: T1, Full-length, GST-tagged, human CaMKIIδ (Homo sapiens, UniProt Q13557)
T1 construct: Full-Length, Glutathione-S-Transferase(GST)-Tagged, Human CaMKIIδ was purchased from Carna Biosciences; purchased Carna Biosciences 02-111
Test: CaMKIIδ binding assay (TR-FRET with BODIPY-labeled probe ligand)
Procedure, shortened: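 TR-FRET probe-displacement binding: 0.5 nM GST-CaMKIIδ with 10 μg/mL calmodulin, 1 mM CaCl2, 0.21 nM Tb-anti-GST Ab and 300 nM BODIPY probe in HEPES pH 7.6 buffer. Eight-point 4-fold dilutions, 1 hr at room temperature. IC50 from logistic fit; 100% inhibition defined by 3 μM parent compound.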

[1] = CaMKIIδ binding assay, activity class per Table 2
[2] = CaMKIIδ binding assay, results of Table 2
[3] = Table 2, activity class for CaMKIIδ
[4] = Table 2, CaMKIIδ binding assay, activity given as class A/B/C

T1 sequence (Q13557 1-478 isoform Q13557-12): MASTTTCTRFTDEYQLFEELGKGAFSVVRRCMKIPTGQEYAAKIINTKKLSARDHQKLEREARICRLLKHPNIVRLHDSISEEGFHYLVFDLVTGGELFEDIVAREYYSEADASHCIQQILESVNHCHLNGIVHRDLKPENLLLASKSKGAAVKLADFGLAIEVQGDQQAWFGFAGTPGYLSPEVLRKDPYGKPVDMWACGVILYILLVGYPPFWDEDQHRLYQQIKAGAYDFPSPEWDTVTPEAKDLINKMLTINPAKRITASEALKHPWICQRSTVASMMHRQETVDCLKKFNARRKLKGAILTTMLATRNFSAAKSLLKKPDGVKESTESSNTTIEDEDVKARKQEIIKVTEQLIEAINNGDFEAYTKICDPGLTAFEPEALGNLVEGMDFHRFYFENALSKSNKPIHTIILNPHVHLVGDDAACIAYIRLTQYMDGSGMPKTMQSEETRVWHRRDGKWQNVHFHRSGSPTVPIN

C[C@@H](Cn1cnnn1)Oc1cc(-c2cnc(Nc3cn(C4(CO)CCC4)nc3OCC(F)(F)F)nc2)ccc1Cl [Example 914, (S)-(1-(4-((5-(3-((1-(1H-tetrazol-1-yl)propan-2-yl)oxy)-4-chlorophenyl)pyrimidin-2-yl)amino)-3-(2,2,2-trifluoroethoxy)-1H-pyrazol-1-yl)cyclobutyl)methanol]
IC50 [1]: < 10 nM

COc1ccc(C(=O)N2C[C@@H](C)N[C@@H](C)C2)cc1Nc1ncc(-c2ccc(Cl)c(O[C@@H](C)Cn3cnnn3)c2)cn1 [Example 570, (3-((5-(3-(((S)-1-(1H-tetrazol-1-yl)propan-2-yl)oxy)-4-chlorophenyl)pyrimidin-2-yl)amino)-4-methoxyphenyl) (cis-3,5-dimethylpiperazin-1-yl)methanone]
IC50 [2]: < 10 nM

CC(=O)OC(C)(C)CN1CC2(CC(n3cc(Nc4ncc(-c5ccc(Cl)c(O[C@@H](C)Cn6cnnn6)c5)cn4)c(C(C)C)n3)C2)C1 [Example 975, (S)-1-(6-(4-((5-(3-((1-(1H-tetrazol-1-yl)propan-2-yl)oxy)-4-chlorophenyl)pyrimidin-2-yl)amino)-3-isopropyl-1H-pyrazol-1-yl)-2-azaspiro[3.3]heptan-2-yl)-2-methylpropan-2-yl acetate]
IC50 [1]: < 10 nM

COc1cc2c(cc1Nc1ncc(-c3ccc(C#N)c(O[C@@H](C)Cn4cnnn4)c3)cn1)N(C(=O)C(F)(F)F)CCC2 [Example 585, (S)-2-((1-(1H-tetrazol-1-yl)propan-2-yl)oxy)-4-(2-((6-methoxy-1-(2,2,2-trifluoroacetyl)-1,2,3,4-tetrahydroquinolin-7-yl)amino)pyrimidin-5-yl)benzonitrile]
IC50 [3]: 10 to 100 nM

C[C@@H](Cn1cnnn1)Oc1cc(-c2cnc(Nc3cn(CC4(O)CCN(C)CC4)nc3C(F)(F)F)nc2)ccc1Cl [Example 891, (S)-4-((4-((5-(3-((1-(1H-tetrazol-1-yl)propan-2-yl)oxy)-4-chlorophenyl)pyrimidin-2-yl)amino)-3-(trifluoromethyl)-1H-pyrazol-1-yl)methyl)-1-methylpiperidin-4-ol]
IC50 [1]: < 10 nM

CCOC(=O)c1c(Nc2ncc(-c3ccc(Cl)c(O[C@@H](C)Cn4cnnn4)c3)cn2)cnn1CC [Example 872, ethyl (S)-4-((5-(3-((1-(1H-tetrazol-1-yl)propan-2-yl)oxy)-4-chlorophenyl)pyrimidin-2-yl)amino)-1-ethyl-1H-pyrazole-5-carboxylate]
IC50 [4]: < 10 nM

C[C@@H](Cn1cnnn1)Oc1cc(-c2cnc(Nc3cn(C4CCN(C5CCOCC5)CC4)nc3C#N)nc2)ccc1Cl [Example 592, (S)-4-((5-(3-((1-(1H-tetrazol-1-yl)propan-2-yl)oxy)-4-chlorophenyl)pyrimidin-2-yl)amino)-1-(1-(tetrahydro-2H-pyran-4-yl)piperidin-4-yl)-1H-pyrazole-3-carbonitrile]
IC50 [3]: < 10 nM

COc1cc(N2C[C@@H]3C[C@H]2CN3C2CCOCC2)ccc1Nc1ncc(-c2ccc(Cl)c(O[C@@H](C)Cn3cnnn3)c2)cn1 [Example 653, 5-(3-(((S)-1-(1H-tetrazol-1-yl)propan-2-yl)oxy)-4-chlorophenyl)-N-(2-methoxy-4-((1S,4S)-5-(tetrahydro-2H-pyran-4-yl)-2,5-diazabicyclo[2.2.1]heptan-2-yl)phenyl)pyrimidin-2-amine]
IC50 [3]: 10 to 100 nM

C[C@@H](Cn1cnnn1)Oc1cc(-c2cnc(Nc3cn(Cc4n[nH]c(=O)[nH]4)nc3C(F)(F)F)nc2)ccc1Cl [Example 722, (S)-5-((4-((5-(3-((1-(1H-tetrazol-1-yl)propan-2-yl)oxy)-4-chlorophenyl)pyrimidin-2-yl)amino)-3-(trifluoromethyl)-1H-pyrazol-1-yl)methyl)-2,4-dihydro-3H-1,2,4-triazol-3-one]
IC50 [3]: ≥ 100 nM

C[C@@H](Cn1cnnn1)Oc1cc(-c2cnc(Nc3cn(CC4(O)CCC(=O)CC4)nc3OCC(F)(F)F)nc2)ccc1Cl [Example 903, (S)-4-((4-((5-(3-((1-(1H-tetrazol-1-yl)propan-2-yl)oxy)-4-chlorophenyl)pyrimidin-2-yl)amino)-3-(2,2,2-trifluoroethoxy)-1H-pyrazol-1-yl)methyl)-4-hydroxycyclohexan-1-one]
IC50 [1]: < 10 nM

C[C@@H](Cn1cnnn1)Oc1cc(-c2cnc(Nc3cn(CC(O)(C(F)(F)F)C(F)(F)F)nc3C(F)(F)F)nc2)ccc1Cl [Example 744, (S)-2-((4-((5-(3-((1-(1H-tetrazol-1-yl)propan-2-yl)oxy)-4-chlorophenyl)pyrimidin-2-yl)amino)-3-(trifluoromethyl)-1H-pyrazol-1-yl)methyl)-1,1,1,3,3,3-hexafluoropropan-2-ol]
IC50 [4]: ≥ 100 nM

C[C@@H](Cn1cnnn1)Oc1cc(-c2cnc(Nc3cn(Cc4cccc(=O)[nH]4)nc3OCC(F)(F)F)nc2)ccc1Cl [Example 929, (S)-6-((4-((5-(3-((1-(1H-tetrazol-1-yl)propan-2-yl)oxy)-4-chlorophenyl)pyrimidin-2-yl)amino)-3-(2,2,2-trifluoroethoxy)-1H-pyrazol-1-yl)methyl)pyridin-2(1H)-one]
IC50 [1]: < 10 nM

COc1cc2c(cc1Nc1ncc(-c3ccc(Cl)c(O[C@@H](C)Cn4cnnn4)c3)cn1)N(C(=O)C(F)(F)F)CCC2 [Example 586, (S)-1-(7-((5-(3-((1-(1H-tetrazol-1-yl)propan-2-yl)oxy)-4-chlorophenyl)pyrimidin-2-yl)amino)-6-methoxy-3,4-dihydroquinolin-1(2H)-yl)-2,2,2-trifluoroethan-1-one]
IC50 [3]: ≥ 100 nM

COc1cc(N2CCN(CC3COC3)CC2)cnc1Nc1ncc(-c2ccc(Cl)c(O[C@@H](C)Cn3cnnn3)c2)cn1 [Example 648, (S)-5-(3-((1-(1H-tetrazol-1-yl)propan-2-yl)oxy)-4-chlorophenyl)-N-(3-methoxy-5-(4-(oxetan-3-ylmethyl)piperazin-1-yl)pyridin-2-yl)pyrimidin-2-amine]
IC50 [3]: 10 to 100 nM

C[C@@H](Cn1cnnn1)Oc1cc(-c2cnc(Nc3cn(C4CCN(CC(F)(F)F)CC4)nc3C(F)(F)F)nc2)ccc1Cl [Example 486, (S)-5-(3-((1-(1H-tetrazol-1-yl)propan-2-yl)oxy)-4-chlorophenyl)-N-(1-(1-(2,2,2-trifluoroethyl)piperidin-4-yl)-3-(trifluoromethyl)-1H-pyrazol-4-yl)pyrimidin-2-amine]
IC50 [2]: 10 to 100 nM

COc1cc2c(cc1Nc1ncc(-c3ccc(Cl)c(O[C@@H](C)Cn4cnnn4)c3)cn1)CCN(CC(C)=O)C2 [Example 479, (S)-1-(6-((5-(3-((1-(1H-tetrazol-1-yl)propan-2-yl)oxy)-4-chlorophenyl)pyrimidin-2-yl)amino)-7-methoxy-3,4-dihydroisoquinolin-2(1H)-yl)propan-2-one]
IC50 [2]: < 10 nM

C[C@@H](Cn1cnnn1)Oc1cc(-c2cnc(Nc3cn([C@H]4CC[C@H](N5CC6(COC6)C5)CC4)nc3C(F)(F)F)nc2)ccc1Cl [Example 822, 5-(3-(((S)-1-(1H-tetrazol-1-yl)propan-2-yl)oxy)-4-chlorophenyl)-N-(1-(trans-4-(2-oxa-6-azaspiro[3.3]heptan-6-yl)cyclohexyl)-3-(trifluoromethyl)-1H-pyrazol-4-yl)pyrimidin-2-amine]
IC50 [4]: < 10 nM

COc1cc2c(cc1Nc1ncc(-c3ccc(Cl)c(O[C@@H](C)Cn4cnnn4)c3)cn1)CCN(CC(F)F)C2 [Example 476, (S)-N-(5-(3-((1-(1H-tetrazol-1-yl)propan-2-yl)oxy)-4-chlorophenyl)pyrimidin-2-yl)-2-(2,2-difluoroethyl)-7-methoxy-1,2,3,4-tetrahydroisoquinolin-6-amine]
IC50 [2]: 10 to 100 nM

CC(C#N)n1cc(Nc2ncc(-c3ccc(Cl)c(O[C@@H](C)Cn4cnnn4)c3)cn2)c(C(F)(F)F)n1 (stereo partly drawn) [Example 716, 2-(4-((5-(3-(((S)-1-(1H-tetrazol-1-yl)propan-2-yl)oxy)-4-chlorophenyl)pyrimidin-2-yl)amino)-3-(trifluoromethyl)-1H-pyrazol-1-yl)propanenitrile]
IC50 [3]: 10 to 100 nM

C[C@@H](Cn1cnnn1)Oc1cc(-c2cnc(Nc3cn(C4CCN(C(=O)OC(C)(C)C)CC4)nc3C(F)(F)F)nc2)ccc1Cl [Example 482, tert-butyl (S)-4-(4-((5-(3-((1-(1H-tetrazol-1-yl)propan-2-yl)oxy)-4-chlorophenyl)pyrimidin-2-yl)amino)-3-(trifluoromethyl)-1H-pyrazol-1-yl)piperidine-1-carboxylate]
IC50 [2]: 10 to 100 nM

C[C@@H](Cn1cnnn1)Oc1cc(-c2cnc(Nc3cn(C4(C(=O)O)CCC4)nc3OCC(F)(F)F)nc2)ccc1Cl [Example 916, (S)-1-(4-((5-(3-((1-(1H-tetrazol-1-yl)propan-2-yl)oxy)-4-chlorophenyl)pyrimidin-2-yl)amino)-3-(2,2,2-trifluoroethoxy)-1H-pyrazol-1-yl)cyclobutane-1-carboxylic acid]
IC50 [1]: 10 to 100 nM

Cc1noc(C)c1Cn1cc(Nc2ncc(-c3ccc(Cl)c(O[C@@H](C)Cn4cnnn4)c3)cn2)c(C(F)(F)F)n1 [Example 734, (S)-5-(3-((1-(1H-tetrazol-1-yl)propan-2-yl)oxy)-4-chlorophenyl)-N-(1-((3,5-dimethylisoxazol-4-yl)methyl)-3-(trifluoromethyl)-1H-pyrazol-4-yl)pyrimidin-2-amine]
IC50 [4]: 10 to 100 nM

C[C@@H](Cn1cnnn1)Oc1cc(-c2cnc(Nc3cc(N4CCN(C5CCOCC5)CC4)ncc3OC(F)(F)F)nc2)ccc1C#N [Example 542, (S)-2-((1-(1H-tetrazol-1-yl)propan-2-yl)oxy)-4-(2-((2-(4-(tetrahydro-2H-pyran-4-yl)piperazin-1-yl)-5-(trifluoromethoxy)pyridin-4-yl)amino)pyrimidin-5-yl)benzonitrile]
IC50 [2]: < 10 nM

C[C@@H](Cn1cnnn1)Oc1cc(-c2cnc(Nc3cn(C4CC5(C4)CN(C4CCC4)C5)nc3OC3COC3)nc2)ccc1Cl [Example 945, (S)-5-(3-((1-(1H-tetrazol-1-yl)propan-2-yl)oxy)-4-chlorophenyl)-N-(1-(2-cyclobutyl-2-azaspiro[3.3]heptan-6-yl)-3-(oxetan-3-yloxy)-1H-pyrazol-4-yl)pyrimidin-2-amine]
IC50 [1]: < 10 nM

Reference: patent US10543212B2, “Substituted amines for treating cardiac diseases” (Cardurion Pharmaceuticals, LLC, priority 2017, dated 2020)
